Here are results for ten compounds from patent publication US9249111B2, “Substituted quinoxalines as B-RAF kinase inhibitors” (NEUPHARMA, INC., priority 2011, dated 2016).

The target in one test is T1, BRAF (Homo sapiens, UniProt P15056).
T1 construct: purchased Invitrogen
Briefly: Z'-LYTE kinase inhibition assay (Invitrogen), BRAF. Format: biochemical. To be noted: compound at 1 μM; Z'-LYTE method. On the procedure: (§1) Inhibitory activities of compounds against BRAF or BRAF V600E were measured by Invitrogen using Z′-LYTE® Method as briefly described in the following.
(§2) 4× Test compounds were dissolved in 1% DMSO. […] ATP solutions were diluted to a 4×ATP working concentration in Kinase Buffer (50 mM HEPES pH 7.5, 0.01% BRIJ-35, 10 mM MgCl2, 1 mM EGTA). Reaction started by 30-second shaking of mixture consisting of 2.5 μL4× test compound, 2.5 μL 2× kinase reaction mixture and 2.5 μL 4×ATP Solution on Bar-coded Corning, low volume NBS, black 384-well plate (Corning Cat. #3676). Then the mixture was incubated for 60-minute at room temperature for the kinase reaction, followed by addition of 5 μL of a 1:1024 dilution of development reagent A and 30-second plate shake. The mixture was then incubated for another 60-minute at room temperature for development reaction. Finally fluorescence was read by plate reader. IC50 was calculated by plotting the concentration of compound vs the percentage of inhibition in treated wells using GraphPad Prism 5.

In a further test the target is T2, BRAF V600E (Homo sapiens, UniProt P15056, V600E).
T2 construct: purchased Invitrogen
Put plainly: Z'-LYTE kinase inhibition assay (Invitrogen), BRAF V600E. It counts as biochemical. To be noted: Z'-LYTE method; for inhibition at 1 µM: compound at 1 μM. The method, then: as §1, §2

The next test relates to A375 cells. Put plainly: MTT cell growth inhibition assay, A375 cells. Format: cell-based. To be noted: Homo sapiens, A-375, 72 h compound exposure. On the procedure: (§3) Inhibition of cell growth by compounds was measured using MTT assay (Mosmann, T., Journal of Immunological Methods, 1983, 65, 55-63). Tumor cell lines were purchased from ATCC (American Type Culture Collection, Manassas, Va.). All cell lines were maintained in RPMI 1640 (Hyclone) supplemented with 10% fetal bovine serum (FBS, Hyclone), glutamine (2 mM, Hyclone), and antibiotics (penicillin 100 U/mL and streptomycin 50 μg/mL) at 37° C. in a humidified atmosphere of 5% CO2 in air. Taxol (as a positive control, Sigma) and compounds were dissolved in DMSO (Sigma), and the final concentration of DMSO in the medium was 1%. Tumor cells were plated in 96-well plates at densities of about 4000 cells/well of a 96-well plate and allowed to adhere/grow for 24 h. They were then treated with various concentrations of drug for 72 h. 3-(4,5-Dimethylthiazol-2-yl)-2,5-diphenyltetrazolium bromide (MTT, Sigma) was used to determine the number of viable cells at the time of compound addition and the number of cells remaining after 72 h compound exposure. The number of cells remaining after 72 h was compared to the number of viable cells at the time of compound addition by measuring the absorbance at 570 nm, allowing for the calculation of growth inhibition.
(§4) All concentrations of compounds were tested in triplicate and controls were averaged over 4 wells. IC50 was calculated by plotting the concentration of compound vs the percentage of inhibition in treated wells using GraphPad Prism 5. […] The scale utilized in Table 2 is as follows: […], ++ between 1000 and 5000 nM, and + greater than 5000 nM.

In the next test the test system is A549 cells. Put plainly: MTT cell growth inhibition assay, A549 cells. As to conditions: Homo sapiens, 72 h compound exposure. Format: cell-based. The method, then:
as §3, §4

T2 sequence (P15056 whole entry V600E): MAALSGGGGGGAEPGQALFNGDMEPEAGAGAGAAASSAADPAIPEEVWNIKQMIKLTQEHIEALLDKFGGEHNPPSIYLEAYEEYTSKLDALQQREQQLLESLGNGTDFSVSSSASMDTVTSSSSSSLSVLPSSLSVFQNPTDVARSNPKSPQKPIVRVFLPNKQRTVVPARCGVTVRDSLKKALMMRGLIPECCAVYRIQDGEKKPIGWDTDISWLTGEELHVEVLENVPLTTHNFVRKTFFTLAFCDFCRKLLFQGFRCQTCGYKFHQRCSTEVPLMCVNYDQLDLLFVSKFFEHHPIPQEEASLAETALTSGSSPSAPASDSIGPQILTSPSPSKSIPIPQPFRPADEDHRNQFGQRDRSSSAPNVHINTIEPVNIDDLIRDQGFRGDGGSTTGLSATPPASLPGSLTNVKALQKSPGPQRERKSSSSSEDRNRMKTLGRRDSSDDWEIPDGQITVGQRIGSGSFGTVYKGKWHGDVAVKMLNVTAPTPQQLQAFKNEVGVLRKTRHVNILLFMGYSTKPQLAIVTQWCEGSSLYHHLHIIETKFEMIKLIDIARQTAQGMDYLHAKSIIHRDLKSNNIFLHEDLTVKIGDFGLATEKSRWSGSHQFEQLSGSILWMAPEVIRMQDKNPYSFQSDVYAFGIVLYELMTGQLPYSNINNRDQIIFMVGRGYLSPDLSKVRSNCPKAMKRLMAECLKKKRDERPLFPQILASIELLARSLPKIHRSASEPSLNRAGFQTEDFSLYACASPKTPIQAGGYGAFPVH
T1 sequence (P15056 whole entry): as the sequence (P15056 whole entry V600E) above, with E600V counted along it

Consider `O=C(c1ccc2nccnc2c1)c1c(F)ccc(OCc2cccc(F)c2)c1F` [Compound C01, (2,6-difluoro-3-((3-fluorobenzyl)oxy)phenyl)(quinoxalin-6-yl)methanone], for which the inhibition at 1 µM on BRAF and against BRAF V600E was 30 to 89% each time. In addition, the concentration for half-maximal inhibition (IC50) with A375 cells and in the test on A549 cells was > 5 µM each time.

Take `O=C(c1ccc2nccnc2c1)c1c(F)ccc(OCc2cccc(Cl)c2)c1F` [Compound C02, (3-((3-chlorobenzyl)oxy)-2,6-difluorophenyl)(quinoxalin-6-yl)methanone]: the inhibition at 1 µM on BRAF and against BRAF V600E was 30 to 89% throughout. In addition, the 50% inhibitory concentration (IC50) in the test with A375 cells and with A549 cells was > 5 µM in each case.

Regarding `O=C(c1ccc2nccnc2c1)c1c(F)ccc(O)c1F` [Compound C03, (2,6-difluoro-3-hydroxyphenyl)(quinoxalin-6-yl)methanone], the IC50 was < 1 µM in the test with A375 cells and 1 to 5 µM in the test with A549 cells.

`COc1ccc(F)c(C(=O)c2ccc3nccnc3c2)c1F` [Compound C04, (2,6-difluoro-3-methoxyphenyl)(quinoxalin-6-yl)methanone]: the inhibition at 1 µM against BRAF was < 30%; at BRAF V600E, 30 to 89%. Besides, the IC50 in the test with A375 cells and in the test on A549 cells was 1 to 5 µM each time.

As for `O=C(c1ccc2ncc(Cl)nc2c1)c1c(F)ccc(O)c1F` [Compound C05, (3-chloroquinoxalin-6-yl)(2,6-difluoro-3-hydroxyphenyl)methanone], the IC50 with A375 cells was < 1 µM; in the test with A549 cells, 1 to 5 µM.

Regarding `O=C(c1ccc2nccnc2c1)c1c(F)ccc(OCc2ccccc2)c1F` [Compound C06, (3-(benzyloxy)-2,6-difluorophenyl)(quinoxalin-6-yl)methanone], the inhibition at 1 µM is 30 to 89% on BRAF and > 89% against BRAF V600E. The IC50 on BRAF V600E (read-out: IC50 against BRAF V600E) was < 0.05 µM; in the test on A375 cells, < 1 µM; in the test with A549 cells, < 1 µM.

In the case of `O=C(c1ccc2ncc(-c3cccnc3)nc2c1)c1c(F)ccc(O)c1F` [Compound C07, (2,6-difluoro-3-hydroxyphenyl)(3-(pyridin-3-yl)quinoxalin-6-yl)methanone], the IC50 with A375 cells and with A549 cells was 1 to 5 µM throughout.

As for `O=C(c1ccc2ncc(-c3ccccc3)nc2c1)c1c(F)ccc(O)c1F` [Compound C08, (2,6-difluoro-3-hydroxyphenyl)(3-phenylquinoxalin-6-yl)methanone], the IC50 in the test with A375 cells is < 1 µM; in the test on A549 cells, 1 to 5 µM.

As to `N#Cc1cnc2ccc(C(=O)c3c(F)ccc(O)c3F)cc2n1` [Compound C09, 7-(2,6-difluoro-3-hydroxybenzoyl)quinoxaline-2-carbonitrile], the half-inhibitory concentration (IC50) with A375 cells and in the test with A549 cells was 1 to 5 µM each time.

Consider `COc1cnc2ccc(C(=O)c3c(F)ccc(O)c3F)cc2n1` [Compound C10, (2,6-difluoro-3-hydroxyphenyl)(3-methoxyquinoxalin-6-yl)methanone], for which the IC50 with A375 cells and with A549 cells was 1 to 5 µM in each case.
